Patent publication US6392118B1, “Mx-1 conditionally immortalized cells” (Neurotech S.A., priority 1994, dated 2002)

How the values were obtained:
[1] = system: glial fibrillary acidic protein (GFAP); experiment: GFAP reactivity of neural stem cells encapsulated in BAOs with or without EGF; assay type: cell-based; conditions: 20 ng/ml EGF
Experimental: Neurospheres were prepared using the methods of Weiss et al., PCT/CA 92/00283. Passage 68 neurospheres were collected and divided. Half of the neurospheres were triturated into a single cell suspension and half remained as clusters. A single cell count was performed on a single cell suspension and it was assumed that the clustered cells were of the same concentration. Single cells and clusters were suspended separately in equal amounts of Vitrogen™ and either neurosphere medium with 20 ng/ml EGF as controls, or PC-1 medium.
Cells were loaded at a density of 25,000 cells/μl into single-skinned hollow fiber PAN/PVC BAOs, prepared substantially as described in Example 2, and then hub sealed. The BAOs were held in either neurosphere+EGF medium or in PC-1 medium (with no EGF).
The BAOs were sacrificed after 3 days and 7 days and were stained for glial fibrillary acidic protein (GFAP) by immunocytochemistry. GFAP is an intermediate filament protein specifically expressed in astrocytes. […]

[2] = system: PC12 cells

| Substance | GFAP Reactivity ([1]; cell clusters, 3 days) | GFAP Reactivity ([1]; cell clusters, 7 days) | GFAP Reactivity ([1]; single cell, 3 days) | GFAP Reactivity ([1]; single cell, 7 days) | toxicity of scaffold to PC12 cells [2] |
| --- | --- | --- | --- | --- | --- |
| EGF: epidermal growth factor, 20 ng/ml in neurosphere medium | Negative | Negative | Negative | Negative | – |
| poly(hydroxyethyl methacrylate) [PHEMA] | – | – | – | – | nontoxic |
